Measurements as given in PMC9077470 (RSC Advances, 2018).
“Also recorded” adds a separate entry of the source.

Tests used:
[1] = tested on: TNBS-induced experimental colitis; test: TNBS-induced colitis: colon index and colonic damage score (CDS); type: in vivo, mice; details: for colon index, compared with positive control: vs positive control (5-ASDB p < 0.05, Ols-DBP p < 0.01); for CDS, compared with positive control: vs positive control, p < 0.05
Protocol: Colitis was induced according to the previous study.[18,19] Briefly, after 12 h of fasting, mice were anesthetized with intraperitoneal pentobarbital sodium (35 mg kg^-1) before the induction of colitis. 0.1 mL of 50% (v/v) ethanol contained 2.5% (v/v) TNBS was instilled into the colon 3.5-4 cm from the anus by a gavage needle. The mice were kept in a head-down position for 30 s to prevent leakage of the intracolonic instillation. Mice in the control group received normal saline instead of TNBS solution, a physical mixture of 5-ASA and sodium butyrate was used as the positive control. […] The treatments were given once daily for 5 continuous days starting 24 hours after the induction of colitis. At the end of the experiment, all mice were sacrificed and their entire colons were excised, opened longitudinally and washed carefully with normal saline. After dried with filter papers, colons were weighted and the length of colons was measured and recorded. The colon index was calculated as follows:Colon index (g dm^-1) = weight of colon/length of colon The colonic damage score (CDS) of mice in each group was evaluated according to the following criteria: 0, no ulcer and colitis; 1, no ulcer, local congestion; 2, ulcers, no local congestion; 3, ulcer and colitis at only one site; 4, ulcer and colitis at more than one sites; 5, over 2 cm of ulcer surface.[24]

[2] = In vitro incubation with stomach contents of rats; type: in vitro ADME; details: rat stomach contents homogenate, pH 1.2, 37 °C, after 2 h of incubation
Protocol: (§1) After anesthetized with diethyl ether, rats were sacrificed and their contents of stomach and small intestine were collected and homogenized respectively, the homogenate was diluted with buffer solution (pH 1.2 for stomach contents, pH 6.8 for small intestine contents) to 20% (w/v). […] After 0.25, 0.5, 1.0, 1.5, 2.0, 3.0 and 4.0 h of incubation, 200 μL of samples were collected and replaced with the same volume of blank homogenate, then samples were centrifuged at 13 000 rpm for 5 min, filtered with membrane filter, and analyzed by HPLC. The residual contents of each prodrug in homogenate were calculated and the hydrolysis curves were drawn.

[3] = tested on: TNBS-induced experimental colitis; test: TNBS-induced colitis: body weight, survival rates, overall effect; type: in vivo, mice; details: for body weight of mice / therapeutic effects on the TNBS-induced UC (overall): TNBS colitis mice; for body weight of mice: once daily 5 days, equivalent to 100 mg kg^−1 5-ASA; for therapeutic effects on the TNBS-induced UC (overall): Ols-DB as enema, others i.g.; for ameliorative effects on TNBS-induced colitis (overall), compared with positive control: vs positive control, oral administration
Protocol: Colitis was induced according to the previous study.[18,19] Briefly, after 12 h of fasting, mice were anesthetized with intraperitoneal pentobarbital sodium (35 mg kg^-1) before the induction of colitis. 0.1 mL of 50% (v/v) ethanol contained 2.5% (v/v) TNBS was instilled into the colon 3.5-4 cm from the anus by a gavage needle. The mice were kept in a head-down position for 30 s to prevent leakage of the intracolonic instillation. Mice in the control group received normal saline instead of TNBS solution, a physical mixture of 5-ASA and sodium butyrate was used as the positive control. […] The treatments were given once daily for 5 continuous days starting 24 hours after the induction of colitis. After the induction of colitis, the body weight of each mice was recorded daily, and the curves of weight changes for each group were drawn to evaluate the TNBS-induced colitis. Meanwhile, the death of mice in each group was recorded daily and the final survival rates of mice were calculated.

[4] = tested on: MPO activity in colonic tissues; test: TNBS-induced colitis: MPO activity in colonic tissues; type: in vivo, mice; details: for MPO activity in colonic tissues: vs TNBS group, p < 0.01; for MPO activity, compared with positive control: vs positive control
Protocol: Colitis was induced according to the previous study.[18,19] Briefly, after 12 h of fasting, mice were anesthetized with intraperitoneal pentobarbital sodium (35 mg kg^-1) before the induction of colitis. 0.1 mL of 50% (v/v) ethanol contained 2.5% (v/v) TNBS was instilled into the colon 3.5-4 cm from the anus by a gavage needle. The mice were kept in a head-down position for 30 s to prevent leakage of the intracolonic instillation. Mice in the control group received normal saline instead of TNBS solution, a physical mixture of 5-ASA and sodium butyrate was used as the positive control. […] The treatments were given once daily for 5 continuous days starting 24 hours after the induction of colitis. […] Samples were freeze-thawed three times, after which sonication was repeated. Homogenates were then centrifuged at 13 000 rpm for 30 min and MPO was extracted from the resulting supernatant.[25] MPO activity was measured by the assay kit according to its provider's instructions.

[5] = In vivo incubation in the colon of rats; details: injected into tied rat colon, 6 h
Protocol: 6 hours later, rats were sacrificed and their colon contents were separated and homogenized in 40 mL of phosphate buffer (pH 7.4). The homogenate was sonicated for 5 min and centrifuged at 13 000 rpm for 5 min, then 0.2 mL of the supernatant was collected and mixed with 0.8 mL of methanol. Finally, samples were centrifuged, filtered and analyzed by HPLC. The residual contents of each prodrug in colon contents were calculated, and the hydrolysis ratio was calculated by the following equation: [drawing 2] where Wr is the residual amount of prodrugs in the colon contents and Wi is the initial amount of prodrugs that administered to rats.

[6] = tested on: TNBS-induced experimental colitis; test: TNBS-induced colitis: disease activity index (DAI); type: in vivo, mice; details: for DAI, compared with positive control: vs positive control (5-ASA + sodium butyrate)
Protocol: Colitis was induced according to the previous study.[18,19] Briefly, after 12 h of fasting, mice were anesthetized with intraperitoneal pentobarbital sodium (35 mg kg^-1) before the induction of colitis. 0.1 mL of 50% (v/v) ethanol contained 2.5% (v/v) TNBS was instilled into the colon 3.5-4 cm from the anus by a gavage needle. The mice were kept in a head-down position for 30 s to prevent leakage of the intracolonic instillation. Mice in the control group received normal saline instead of TNBS solution, a physical mixture of 5-ASA and sodium butyrate was used as the positive control. […] The treatments were given once daily for 5 continuous days starting 24 hours after the induction of colitis. DAI is ranged from 0 to 4 and it is the sum of scores given for body weight loss, stool consistency and presence or absence of fecal blood. The fecal occult blood of mice was evaluated by the ο-tolidine method.[22] A small amount of feces samples were smeared on a white plate. 2-3 drops of ο-tolidine solution (10 g L^-1, dissolved in acetic acid) were added into samples and mixed evenly. Then 2-3 drops of 3% H2O2 solution were added into the mixture, meanwhile, start the time and observe immediately. Scored as: normal, weak positive, green to light green developing over 2 min; +, positive, greenish-blue to deep green developing within 1 min; ++, positive, blue to bluish-green developing within 5-20 s; +++, very strong positive, intense blue color developing immediately.[23]

[7] = In vitro incubation with small intestine contents of rats; type: in vitro ADME; details: rat small intestine contents homogenate, pH 6.8, 37 °C, after 4 h of incubation
Protocol: as §1

residual content of prodrug in stomach contents [2]	hydrolysis ratio after in vivo incubation in rat colons [5]	residual content of prodrug in small intestine contents [7]	Compound	colon index, compared with positive control [1]	CDS, compared with positive control [1]	body weight of mice [3]	therapeutic effects on the TNBS-induced UC (overall) [3]	ameliorative effects on TNBS-induced colitis (overall), compared with positive control [3]	MPO activity in colonic tissues [4]	MPO activity, compared with positive control [4]	DAI, compared with positive control [6]	DAI ([6]; TNBS colitis mice, once daily 5 days, equivalent to 100 mg kg^−1 5-ASA, course after treatment)
63.3%	almost hydrolyzed completely	94.7%	CCCC(=O)OCC(COC(=O)CCC)OC(=O)c1cc(N)ccc1O [5-ASDB, 2-(1,3-dibutyroxypropyl)-5-aminosalicylate]	significantly better than the positive control	significantly greater than the positive control	slight weight loss at first and gained gradually from the 2nd day	certain therapeutic effects	significantly greater than the positive control	significantly decreased	significantly better than the positive control	better effects than the positive control	
almost completely decomposed	almost hydrolyzed completely	5.5%	CCCC(=O)Oc1ccc(N=Nc2ccc(OC(=O)CCC)c(C(=O)O)c2)cc1C(=O)O [Ols-DB, 3,3′-azobis(6-hydroxybenzoicacid)dibutyrate]		significantly greater than the positive control	slight weight loss at first and gained gradually from the 2nd day	just as effective as 5-ASDB and Ols-DBP; also recorded: certain therapeutic effects		significantly decreased	significantly better than the positive control	better effects than the positive control	most significant effects in the first 4 days
57.5%	almost hydrolyzed completely	90.4%	CCCC(=O)OCC(COC(=O)CCC)OC(=O)c1cc(N=Nc2ccc(O)c(C(=O)OC(COC(=O)CCC)COC(=O)CCC)c2)ccc1O [Ols-DBP]	significantly better than the positive control	significantly greater than the positive control	slight weight loss at first and gained gradually from the 2nd day	certain therapeutic effects	significantly greater than the positive control	significantly decreased	significantly better than the positive control	better effects than the positive control	
